12 molecules from patent US9387206B2, “Therapeutic approaches for treating Alzheimer's disease” (PHARNEXT, priority 2009, dated 2016) can be followed below.

Holding throughout (type): cell-based
The subject of data set [1] is human brain microvascular endothelial cells (HBMEC). Put plainly: Total length of capillary network in human Aβ1-42 intoxicated HBMEC cultures. The settings on record: for Effect on Aβ1-42 intoxication, total length of capillary network, drug alone / Prevention of Aβ1-42 intoxication, capillary network, drug alone: Aβ1-42 2.5 μM; for Prevention of Aβ1-42 intoxication, capillary network, drug alone: dose-response experiments, 18 h. As for the experimental part: Human brain microvascular endothelial cell cultures were used to study the protection afforded by candidate compounds on Aβ1-42 toxicity.
Human brain microvascular endothelial cerebral cells (HBMEC, ScienCell Ref: 1000, frozen at passage 10) were rapidly thawed in a water bath at +37° C. […] On matrigel support, endothelial cerebral cells spontaneously started the process of capillary network morphogenesis (47).
Three separate cultures were performed per condition, 6 wells per condition.
The control medium was prepared in the same conditions.
The Aβ1-42 peptide was added 2 hours after HBMEC seeding on matrigel for 18 hours incubation.
Capillary Network Quantification
Per well, 2 pictures with 4× lens were taken using InCell Analyzer™ 1000 (GE Healthcare) in light transmission. All images were taken in the same conditions. Analysis of the angiogenesis networks was done using Developer software (GE Healthcare). The total length of capillary network was assessed.
All values are expressed as mean±s.e.mean of the 3 cultures (n=6 per condition). Statistical analyses were done on the different conditions performing an ANOVA followed by the Dunnett's test when it was allowed (Statview software version 5.0). The values (as %) inserted on the graphs show the amyloid toxicity evolution. Indeed, the amyloid toxicity was taken as the 100% and the test compound effect was calculated as a % of this amyloid toxicity.

Data set [2] deals with rat primary cortical neurons. The data set is described as follows: LDH release, human Aβ1-42 toxicity on rat primary cortical cells. As for the experimental part: Primary rat cortical neurons are cultured as described previously.
Briefly, Aβ1-42 peptide was reconstituted in defined culture medium at 40 μM (mother solution) and was slowly shacked at +37° C. for 3 days in the dark for aggregation. The control medium was prepared in the same conditions.
After 10 days of neuron culture, the drug was solved in culture medium (+0.1% DMSO) and then pre-incubated with neurons for 1 hour before the Aβ1-42 application (in a final volume per culture well of 100 μl). […] Cortical neurons were intoxicated for 24 hours. Three separate cultures were performed per condition, 6 wells per condition.
Estradiol-β at 100 and 150 nM were used as a reference test compound and BDNF at 50 ng/ml was used as a positive control. Three separate cultures were performed per condition, […].
Estradiol-β and BDNF were solved in culture medium and pre-incubated for 1 h before the aggregated amyloid-β1-42 application.
Lactate Dehydrogenase (LDH) Activity Assay
This colorimetric assay for the quantification of cell toxicity is based on the measurement of lactate dehydrogenase (LDH) activity released from the cytosol of dying cells into the supernatant.
All values are expressed as mean±s.e.mean of the 3 cultures (n=6 per condition). Statistical analyses were done on the different conditions (ANOVA followed by the Dunnett's test when it was allowed, Statview software version 5.0).

Data set [3] relates to rat endothelial cerebral cells. The data set is described as follows: LDH release from rat endothelial cerebral cells, beta-amyloid (Aβ25-35) toxicity. The note with it: for Prevention of Aβ25-35 intoxication, LDH release: Aβ25-35 30 μM, 3 days, drug added 1 hour before; for Spontaneous cell death in the culture medium: LDH release, rat endothelial cerebral cells. As for the experimental part:
Primo culture of rat endothelial cerebral cells (Vect-Horus SAS, Marseille) is cultivated on passage 0. At confluence, endothelial cells are dissociated with trypsin EDTA (Pan Biotech Ref: P10-023100). Cells are seeded at a density of 25,000 cells/well in 96-well plates (wells are coated with 30 μl of type I rat collagen at 1.5 mg/ml, Vect-Horus SAS, Marseille) and are cultured in MCBD 131 medium (M-131-500, Invitrogen) supplemented with 1% of microvascular growth supplement (MVGS, S-005-25, Invitrogen). Cells are cultured at 37° C. in a humidified air (95%)/CO2(5%) atmosphere. Half of the medium is changed every other day with fresh medium.
After 4 days, drugs are added to the cell culture medium, at different concentrations, solved in DMSO 0.1% or water.
Cells are then intoxicated with 30 μM of β-amyloid (25-35; Sigma) together with drugs in the same culture medium. Cells are then intoxicated for 3 days.
For each culture, after 3 days of intoxication, the supernatant is collected and analyzed with the Cytotoxicity Detection Kit (LDH, Roche Applied Sciences). This colorimetric assay for the quantification of cell death is based on the measurement of lactate dehydrogenase (LDH) activity released from the cytosol of damaged cells into the supernatant. The optic density (DO) is assessed by spectrophotometer at 492 nm wavelength by a multiscan apparatus (Thermo, Ref Ascent).
Results presented in FIG. 3 are extracted from two independent cultures, 6 wells per condition. All values are expressed as mean±s.e.m. A bilateral Student's t test analysis is performed on raw data. Results are expressed in percentage of cell viability, compared to the control (vehicle).
Drugs are incubated with rat primary cerebral endothelial cells for one hour before Aβ25-35 30 μM intoxication that lasts 3 days.
Three days after this incubation, LDH release in the culture medium is quantified, reflecting the level of cell death.
A general note: Release of lactate dehydrogenase indicates damage to the cell membrane.

Data set [4] concerns rat primary cortical neurons. Put plainly: LDH release in Aβ25-35 intoxicated rat primary cortical neuron culture. The note with it: Aβ25-35 20 μM, 2 days; drug added 1 hour before. As for the experimental part: Primary rat cortical neurons are cultured as described by Singer et al., 1999. Briefly pregnant female rats of 15 days gestation are killed by cervical dislocation (Rats Wistar; Janvier) and the foetuses removed from the uterus. The cortexes are removed and placed in ice-cold medium of Leibovitz (L15; Invitrogen) containing 1% of Penicillin-Streptomycin (PS; Invitrogen) and 1% of bovine serum albumin (BSA; Sigma). Cortexes are dissociated by trypsinisation for 20 min at 37° C. (Trypsin EDTA 1×; Invitrogen) diluted in PBS without calcium and magnesium. The reaction is stopped by the addition of Dulbecco's modified Eagle's medium (DMEM; Invitrogen) containing DNAase I grade II (0.1 mg/ml; Roche Diagnostics) and 10% of foetal calf serum (FCS; Invitrogen). Cells are then mechanically dissociated by 3 passages through a 10 ml pipette. Cells are then centrifuged at 180×g for 10 min at 10° C. […] Viable cells are counted in a Neubauer cytometer using the trypan blue exclusion test. Cells are seeded at a density of 30,00-cells/well in 96-well plates (wells are pre-coated with poly-L-lysine (10 μg/ml; […] After 6 days of culture, cells are incubated with drugs (5 concentrations). After 1 hour, cells are intoxicated by 20 μM of β-amyloid (25-35; Sigma) in defined medium without BDNF but together with drugs. Cortical neurons are intoxicated for 2 days. After 2 days of culture, the supernatant is collected and analyzed with the Cytotoxicity Detection Kit (LDH, Roche Applied Sciences). This colorimetric assay for the quantification of cell death is based on the measurement of lactate dehydrogenase (LDH) activity released from the cytosol of damaged cells into the supernatant. The optic density (DO) is assessed by spectrophotometer at 492 nm wavelength by a multiscan apparatus (Thermo, Ref Ascent). […] Two days after this incubation, LDH release in the culture medium is quantified, reflecting the level of cell death.

[5] abbreviates: alone at the concentrations used in the combination (FIGS. 8-13).
Setting [6] is: drug pretreatment, concentration not given.

For `NCC(CC(=O)O)c1ccc(Cl)cc1` (racemic) [Baclofen], the “Effect on Aβ1-42 intoxication, total length of capillary network, drug alone” value (“Effect … of capillary network, drug alone” below) in data set [1] (setting [5]) is reported as “no significant effect”. Further, the “Prevention of Aβ1-42 intoxication, capillary network, drug alone” value (shortened to “Prevention … drug alone”) in data set [1] is recorded as “significantly prevented”. In data set [2] (setting [6]), the “LDH release, prevention of Aβ1-42 intoxication” value (“LDH release, prevention” for short) is given as −86%.
Turning to `NCCCCCC(=O)O` [Aminocaproic acid, Aminocaproic Acid], the “Effect … of capillary network, drug alone” value in data set [1] (setting [5]) is listed as “no significant effect”.
With `NCC(CC(=O)O)c1ccc(Cl)cc1` (stereo not drawn) [Baclofen (−), Baclofen], the “Prevention of Aβ25-35 intoxication, LDH release” value in data set [3] is on record as “significantly prevented”.
Consider `CCN(CC)C(=O)N1CCN(C)CC1` [Carbamazine], for which the “Effect on Aβ1-42 intoxication, LDH release, drug alone” value in data set [2] (0.32 nM alone, Aβ1-42 2.5 μM) was “no significant effect”. Further, the “LDH release, prevention” value in data set [2] (40 nM, Aβ1-42 10 μM) is −68%. The “Protective effect against toxicity of Aβ peptide 1-42, drug alone” value in data set [2] (40 nM, primary cortical neuron cells) was “strong protective effect”.
Turning to `CC1(C)[C@@H](OC(=O)CCC(=O)O)CC[C@]2(C)[C@H]3C(=O)C=C4[C@@H]5C[C@@](C)(C(=O)O)CC[C@]5(C)CC[C@@]4(C)[C@]3(C)CC[C@@H]12` [Carbenoxolone], in data set [2] (setting [6]), the “LDH release, prevention” value is −39%.
Same read-out and setting: to `C(=C\c1ccccc1)/CN1CCN(C(c2ccccc2)c2ccccc2)CC1` [Cinnarizine] belongs −50%; to `CCOC(=O)c1cncn1[C@H](C)c1ccccc1` [Etomidate], −50%.
As to `Cc1oncc1C(=O)Nc1ccc(C(F)(F)F)cc1` [Leflunomide], the “Prevention of Aβ25-35 intoxication, LDH release” value in data set [4] is “significantly prevented”. In data set [3], the “Prevention of Aβ25-35 intoxication, LDH release” value is reported as “significantly prevented” and the “Spontaneous cell death in the culture medium” value is listed as “decrease spontaneous cell death”.
Take `C[C@@H]1CC(=O)NN=C1c1ccc(NN=C(C#N)C#N)cc1` [Levosimendan]: the “Protective effect against toxicity of Aβ peptide 1-42, drug alone” value in data set [1] (8 nM, HBMEC) is “strong protective effect”. Moreover, in data set [1] (setting [5]), the “Effect … of capillary network, drug alone” value was “no significant effect”. Further, the “Prevention … drug alone” value in data set [1] was “significantly prevented”. Also, the “LDH release, prevention” value in data set [2] (setting [6]) is reported as −47%.
In the case of `Cc1noc(NS(=O)(=O)c2ccc(N)cc2)c1C` [Sulfisoxazole], the “Prevention of Aβ25-35 intoxication, LDH release” value in data set [4] and in data set [3] was “significantly prevented” in each case. The “Effect … of capillary network, drug alone” value in data set [1] (1.36 nM alone) and in data set [1] (setting [5]) was “no significant effect” in each case. Moreover, the “Prevention … drug alone” value in data set [1] is “significantly prevented”. The “LDH release, prevention” value in data set [2] (setting [6]) was −42%.
For the molecule `CN(C/C=C/C#CC(C)(C)C)Cc1cccc2ccccc12` [Terbinafine], the “Effect … of capillary network, drug alone” value in data set [1] (setting [5]) is “no significant effect”. The “Prevention … drug alone” value in data set [1] is listed as “significantly prevented”. In addition, in data set [3], the “Prevention of Aβ25-35 intoxication, LDH release” value was “significantly prevented” and the “Spontaneous cell death in the culture medium” value was “decrease spontaneous cell death”.

B1: brain-derived neurotrophic factor (protein, UniProt P23560 19-247, looked up)
Neurotrophic factor BDNF …: APMKEANIRGQGGLAYPGVRTHGTLESVNGPKAGSRGLTSLADTFEHVIEELLDEDQKVRPNEENNKDADLYTSRVMLSSQVPLEPPLLFLLEEYKNYLDAANMSMRVRRHSDPARRGELSVCDSISEWVTAADKKTAVDMSGGTVTVLEKVPVSKGQLKQYFYETKCNPMGYTKEGCRGIDKRHWNSQCRTTQSYVRALTMDSKKRIGWRFIRIDTSCVCTLTIKRGR
notes: positive control for neuroprotection at 50 ng/ml
As to B1, the “LDH release, protection from amyloid injury” value in data set [2] (BDNF 50 ng/ml, 1 hr pre-treatment, Aβ1-42) was −62%.
